In patent US20230271956A1, “AMIDE DERIVATIVES” (Merck Patent GmbH, priority 2020, published 2023):

biological target: T1, ACSS2 (Homo sapiens, UniProt Q9NR19); assay: Cellular assay of 14C acetate incorporation into histones (IC50 ACSS2 cellular histone); type: cell-based; settings: HCT-15 cells
T1 construct: endogenous fatty acid synthesis activity in the human HCT-15 cancer cell line; endogenous in cells; host or cells: HCT-15
Summary of the method: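 Human HCT-15 cells preincubated 1 h with compound (0.25% DMSO final), then pulsed 3 h with 14C-acetate. Histones were acid-extracted (0.2 M HCl, overnight, 4° C) after Triton lysis in sodium-butyrate buffer; incorporated 14C counted by liquid scintillation (CPM) to give IC50.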

T1 sequence (Q9NR19 whole entry): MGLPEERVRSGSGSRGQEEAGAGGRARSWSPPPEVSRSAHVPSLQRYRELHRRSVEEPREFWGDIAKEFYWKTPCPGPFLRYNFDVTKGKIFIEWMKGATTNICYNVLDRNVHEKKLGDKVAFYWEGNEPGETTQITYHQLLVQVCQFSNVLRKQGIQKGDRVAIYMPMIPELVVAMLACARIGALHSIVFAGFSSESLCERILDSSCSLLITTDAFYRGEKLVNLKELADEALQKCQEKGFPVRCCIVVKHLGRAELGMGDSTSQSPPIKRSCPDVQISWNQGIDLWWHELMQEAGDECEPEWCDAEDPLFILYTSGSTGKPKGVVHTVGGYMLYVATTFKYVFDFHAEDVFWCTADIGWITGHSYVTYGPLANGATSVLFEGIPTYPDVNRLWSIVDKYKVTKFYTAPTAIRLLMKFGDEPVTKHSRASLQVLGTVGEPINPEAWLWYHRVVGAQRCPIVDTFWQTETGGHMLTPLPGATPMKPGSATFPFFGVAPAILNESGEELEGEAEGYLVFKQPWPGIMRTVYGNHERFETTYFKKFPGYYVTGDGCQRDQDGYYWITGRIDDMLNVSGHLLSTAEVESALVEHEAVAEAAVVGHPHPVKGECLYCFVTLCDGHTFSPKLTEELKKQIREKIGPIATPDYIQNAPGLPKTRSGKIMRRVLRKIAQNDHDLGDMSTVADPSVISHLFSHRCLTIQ

Compared with CCc1c(C(O)(c2ccccc2)c2ccccn2)nc2cc(OC)c(C(=O)Nc3ncn(CC)n3)cn12 (racemic) [Compound 16, 3-Ethyl-2-(hydroxy-phenyl-pyridin-2-yl-methyl)-7-methoxy-imidazo[1,2-a]pyridine-6-carboxylic acid (1-ethyl-1H-[1,2,4]triazol-3-yl)-amide], CCc1c(C(O)(c2ccccc2)c2ccccc2)nc2cc(OC)c(C(=O)Nc3ncn(CC)n3)cn12 [Compound 24, 3-Ethyl-2-(hydroxy-diphenyl-methyl)-7-methoxy-imidazo[1,2-a]pyridine-6-carboxylic acid (1-ethyl-1H-[1,2,4]triazol-3-yl)-amide] is lower in IC50: 1 to 10 nM for the first, 0.01 to 1 nM for the second. The second is the more potent here.

First: CCn1cnc(NC(=O)c2cc3c(nc2OC)nc(C(O)(c2ccccc2F)c2ccc(OC(F)F)cc2F)n3CC)n1 (racemic) [Compound 94, 2-{[4-(difluoromethoxy)-2-fluorophenyl](2-fluorophenyl)hydroxymethyl}-1-ethyl-N-(1-ethyl-1H-1,2,4-triazol-3-yl)-5-methoxy-1H-imidazo[4,5-b]pyridine-6-carboxamide]
Second: CCn1cnc(NC(=O)c2cc3c(nc2OC)nc(C(O)(c2ccccc2F)c2ccccc2F)n3CC)n1 [Compound 102, 2-[bis(2-fluorophenyl)(hydroxy)methyl]-1-ethyl-N-(1-ethyl-1H-1,2,4-triazol-3-yl)-5-methoxy-1H-imidazo[4,5-b]pyridine-6-carboxamide]
The IC50 of the first is higher: 1 to 10 nM for the first, 0.01 to 1 nM for the second.

CCn1cnc(NC(=O)c2cc3c(nc2OC)nc(C(O)(c2ccccc2)c2ccccn2)n3CC)n1 (single isomer, unassigned) [Compound 53, 1-ethyl-N-(1-ethyl-1H-1,2,4-triazol-3-yl)-2-[hydroxy(phenyl)(pyridin-2-yl)methyl]-5-methoxy-1H-imidazo[4,5-b]pyridine-6-carboxamide] and CCn1cnc(NC(=O)c2cc3c(nc2OC)nc(C(O)(c2ccccc2)c2ccccc2)n3CC)n1 [Compound 103, 1-ethyl-N-(1-ethyl-1H-1,2,4-triazol-3-yl)-2-(hydroxydiphenylmethyl)-5-methoxy-1H-imidazo[4,5-b]pyridine-6-carboxamide] fall in the same range of IC50: 0.01 to 1 nM for the first, 0.01 to 1 nM for the second.

CCc1c(C(O)(c2ccccc2)c2ccccc2)nn2cc(Cl)c(C(=O)Nc3ncn(CC)n3)cc12 [Compound 1, 6-Chloro-3-ethyl-2-(hydroxy-diphenylmethyl)-pyrazolo[1,5-a]pyridine-5-carboxylic acid (1-ethyl-1H-[1,2,4]triazol-3-yl)-amide] and CCc1c(C(O)(c2ccccc2)c2ccccc2)nn2cc(OC)c(C(=O)Nc3ncn(CC)n3)cc12 [Compound 11, 3-Ethyl-2-(hydroxy-diphenyl-methyl)-6-methoxy-pyrazolo[1,5-a]pyridine-5-carboxylic acid (1-ethyl-1H-[1,2,4]triazol-3-yl)-amide] fall in the same range of IC50: 0.01 to 1 nM for the first, 0.01 to 1 nM for the second.

Compared with CCc1c(C(O)(c2ccccc2F)c2ccccc2F)nn2cc(Cl)c(C(=O)Nc3ncn(CC)n3)cc12 [Compound 2, 2-[Bis-(2-fluoro-phenyl)-hydroxy-methyl]-6-chloro-3-ethyl-pyrazolo[1,5-a]pyridine-5-carboxylic acid (1-ethyl-1H-[1,2,4]triazol-3-yl)-amide], CCc1c(C(O)(c2ccccc2F)c2ccccc2F)nn2cc(C)c(C(=O)Nc3ncn(CC)n3)cc12 [Compound 3, 2-[Bis-(2-fluoro-phenyl)-hydroxy-methyl]-3-ethyl-6-methyl-pyrazolo[1,5-a]pyridine-5-carboxylic acid (1-ethyl-1H-[1,2,4]triazol-3-yl)-amide] is higher in IC50: 0.01 to 1 nM for the first, 1 to 10 nM for the second. The first is the more potent here.

CCc1c(C(O)(c2ccccc2F)c2ccccc2F)nn2cc(OC)c(C(=O)Nc3cnn(CC)c3)cc12 [Compound 4, 2-[Bis-(2-fluoro-phenyl)-hydroxy-methyl]-3-ethyl-6-methoxy-pyrazolo[1,5-a]pyridine-5-carboxylic acid (1-ethyl-1H-pyrazol-4-yl)-amide] and CCc1c(C(O)(c2ccccc2F)c2ccccc2F)nc2cc(OC)c(C(=O)Nc3cnn(CC)c3)cn12 [Compound 30, 2-[Bis-(2-fluoro-phenyl)-hydroxy-methyl]-3-ethyl-7-methoxy-imidazo[1,2-a]pyridine-6-carboxylic acid (1-ethyl-1H-pyrazol-4-yl)-amide] fall in the same range of IC50: 1 to 10 nM for the first, 1 to 10 nM for the second.

Compared with CCc1c(C(O)(c2ccccc2F)c2ccccc2F)nn2ccc(C(=O)Nc3ncn(CC)n3)cc12 [Compound 5, 2-[Bis-(2-fluoro-phenyl)-hydroxy-methyl]-3-ethyl-pyrazolo[1,5-a]pyridine-5-carboxylic acid (1-ethyl-1H-[1,2,4]triazol-3-yl)-amide], CCc1c(C(O)(c2ccccc2)c2ccccc2)nn2ccc(C(=O)Nc3ncn(CC)n3)cc12 [Compound 9, 3-Ethyl-2-(hydroxy-diphenyl-methyl)-pyrazolo[1,5-a]pyridine-5-carboxylic acid (1-ethyl-1H-[1,2,4]triazol-3-yl)-amide] is lower in IC50: 1 to 10 nM for the first, 0.01 to 1 nM for the second. The second is the more potent here.

CCc1c(C(O)(c2ccccc2)c2ccccc2)nn2cc(Cl)c(C(=O)Nc3cnn(CC)c3)cc12 [Compound 6, 6-Chloro-3-ethyl-2-(hydroxy-diphenylmethyl)-pyrazolo[1,5-a]pyridine-5-carboxylic acid (1-ethyl-1H-pyrazol-4-yl)-amide] and CCc1c(C(O)(c2ccccc2)c2ccccc2)nn2cc(OC)c(C(=O)Nc3cnn(CC)c3)cc12 [Compound 8, 3-Ethyl-2-(hydroxy-diphenyl-methyl)-6-methoxy-pyrazolo[1,5-a]pyridine-5-carboxylic acid (1-ethyl-1H-pyrazol-4-yl)-amide] fall in the same range of IC50: 1 to 10 nM for the first, 1 to 10 nM for the second.

CCc1c(C(O)(c2ccccc2)c2ccccc2)nn2ccc(C(=O)Nc3cnn(CC)c3)cc12 [Compound 10, 3-Ethyl-2-(hydroxy-diphenyl-methyl)-pyrazolo[1,5-a]pyridine-5-carboxylic acid (1-ethyl-1H-pyrazol-4-yl)-amide] and CCc1c(C(O)(c2ccccc2)c2ccccc2)nc2ccc(C(=O)Nc3cnn(CC)c3)cn12 [Compound 13, 3-Ethyl-2-(hydroxy-diphenyl-methyl)-imidazo[1,2-a]pyridine-6-carboxylic acid (1-ethyl-1H-pyrazol-4-yl)-amide] fall in the same range of IC50: 10 to 100 nM for the first, 10 to 100 nM for the second.

First: CCc1c(C(O)(c2ccccc2)c2ccccc2)nc2cc(Cl)c(C(=O)Nc3ncn(CC)n3)cn12 [Compound 14, 7-Chloro-3-ethyl-2-(hydroxy-diphenylmethyl)-imidazo[1,2-a]pyridine-6-carboxylic acid (1-ethyl-1H-[1,2,4]triazol-3-yl)-amide]
Second: CCc1c(C(O)(c2ccccc2)c2ccccc2)nc2cc(F)c(C(=O)Nc3ncn(CC)n3)cn12 [Compound 20, 3-Ethyl-7-fluoro-2-(hydroxy-diphenylmethyl)-imidazo[1,2-a]pyridine-6-carboxylic acid (1-ethyl-1H-[1,2,4]triazol-3-yl)-amide]
The IC50 of the first is higher: 1 to 10 nM for the first, 0.01 to 1 nM for the second. The second is the more potent here.

First: CCc1c(C(O)(c2ccccc2)c2ccccc2)nc2cc(Cl)c(C(=O)Nc3cnn(CC)c3)cn12 [Compound 19, 7-Chloro-3-ethyl-2-(hydroxy-diphenylmethyl)-imidazo[1,2-a]pyridine-6-carboxylic acid (1-ethyl-1H-pyrazol-4-yl)-amide]
Second: CCc1c(C(O)(c2ccccc2)c2ccccc2)nc2cc(OC)c(C(=O)Nc3cnn(CC)c3)cn12 [Compound 23, 3-Ethyl-2-(hydroxy-diphenyl-methyl)-7-methoxy-imidazo[1,2-a]pyridine-6-carboxylic acid (1-ethyl-1H-pyrazol-4-yl)-amide]
The IC50 of the first is higher: 10 to 100 nM for the first, 1 to 10 nM for the second. The second is the more potent here.

Compared with CCc1c(C(O)(c2ccccc2)c2ccccc2)nc2ccc(C(=O)Nc3ncn(CC)n3)cn12 [Compound 25, 3-Ethyl-2-(hydroxy-diphenyl-methyl)-imidazo[1,2-a]pyridine-6-carboxylic acid (1-ethyl-1H-[1,2,4]triazol-3-yl)-amide], CCn1cnc(NC(=O)c2cc3c(nc2F)nc(C(O)(c2ccccc2)c2ccccc2)n3CC)n1 [Compound 89, 1-ethyl-N-(1-ethyl-1H-1,2,4-triazol-3-yl)-5-fluoro-2-(hydroxydiphenylmethyl)-1H-imidazo[4,5-b]pyridine-6-carboxamide] is higher in IC50: 0.01 to 1 nM for the first, 1 to 10 nM for the second. The first is the more potent here.

CCc1c(C(O)(c2ccccc2F)c2ccccc2F)nc2cc(OC)c(C(=O)Nc3ncn(CC)n3)cn12 [Compound 28, 2-[Bis-(2-fluoro-phenyl)-hydroxy-methyl]-3-ethyl-7-methoxy-imidazo[1,2-a]pyridine-6-carboxylic acid (1-ethyl-1H-[1,2,4]triazol-3-yl)-amide] and CCc1c(C(O)(c2ccccc2F)c2ccccc2F)nc2cc(Cl)c(C(=O)Nc3ncn(CC)n3)cn12 [Compound 31, 2-[Bis-(2-fluoro-phenyl)-hydroxy-methyl]-7-chloro-3-ethyl-imidazo[1,2-a]pyridine-6-carboxylic acid (1-ethyl-1H-[1,2,4]triazol-3-yl)-amide] fall in the same range of IC50: 0.01 to 1 nM for the first, 0.01 to 1 nM for the second.

Compared with CCn1cc(NC(=O)c2cc3c(nc2F)nc(C(O)(c2ccccc2F)c2ccccc2F)n3CC)cn1 [Compound 90, 2-[bis(2-fluorophenyl)(hydroxy)methyl]-1-ethyl-N-(1-ethyl-1H-pyrazol-4-yl)-5-fluoro-1H-imidazo[4,5-b]pyridine-6-carboxamide], CCn1cnc(NC(=O)c2cc3c(nc2F)nc(C(O)(c2ccccc2F)c2ccccc2F)n3CC)n1 [Compound 91, 2-[bis(2-fluorophenyl)(hydroxy)methyl]-1-ethyl-N-(1-ethyl-1H-1,2,4-triazol-3-yl)-5-fluoro-1H-imidazo[4,5-b]pyridine-6-carboxamide] is lower in IC50: 1 to 10 nM for the first, 0.01 to 1 nM for the second.

Compared with CCn1cc(NC(=O)c2cc3c(nc2Cl)nc(C(O)(c2ccccc2)c2ccccc2)n3CC)cn1 [Compound 98, 5-chloro-1-ethyl-N-(1-ethyl-1H-pyrazol-4-yl)-2-(hydroxydiphenylmethyl)-1H-imidazo[4,5-b]pyridine-6-carboxamide], CCn1c(C(O)(c2ccccc2)c2ccccc2)nc2ccc(C(=O)NC[C@@H](C)O)cc21 [Reference Compound, 3-Ethyl-2-[hydroxy(diphenyl)methyl]-N-[(2R)-2-hydroxypropyl]benzimidazole-5-carboxamide, reference compound] is lower in IC50: 1 to 10 nM for the first, 0.01 to 1 nM for the second. The second is the more potent here.
